Like-named read-outs stand apart in the source and are kept apart here.
Assays:
[1] = tested on: acK68- and acK122-MnSOD in CAL-62 cells; assay: Western blot of MnSOD acK68 and acK122 marks in CAL-62 cells; type: cell-based; settings: 50 μM, 4 h, CAL-62
Experimental: (§1) K68-MnSOD acetylation promotes a transformation-permissive phenotype, leading to a chemotherapy-resistant breast cancer cell model using cisplatin and doxorubicin.[68] […] The specific SIRT3 inhibitor 3-TYP was utilized as negative control.
(§2) Breast cancer cell line MDA-MB-231, anaplastic thyroid cancer cell line CAL-62 and human keratinocytes HaCaT were purchased from ATCC and were cultured in RPMI 1640 medium (R0883 Sigma Aldrich-MERCK) (MDA-MB-231 and CAL-62) or DMEM medium (11965092, Gibco) supplemented with 10% fetal bovine serum (Sigma-Aldrich-MERCK, F9665), 2 mM glutamine (G7513; Sigma-Aldrich-MERCK), 100 units/mL penicillin and 0.1 mg/mL streptomycin (P0781; Sigma-Aldrich-MERCK). Adherent cells were detached by Trypsin–EDTA solution (TA049; Sigma-Aldrich-MERCK). Cells were maintained at 37 °C in humidified incubator with 5% CO2. Cells were treated with […] (CoCl2) (Merck; C8661) dissolved in distilled, sterile water for 24 h to induce hypoxia (200 μM). […]
(§3) Treated and untreated cells were collected and centrifuged at 3000 rpm for 5 min. […] Protein concentration was determined by the Bradford assay (Bio-Rad; 500-0205). […] After three more washes in PBST, the detection of the relevant protein was assessed by enhanced chemiluminescence (Lite Ablot TURBO, Euro-Clone; EMP012001). […]

[2] = tested on: acK68- and acK122-MnSOD in MDA-MB-231 cells; assay: Western blot of MnSOD acK68 and acK122 marks in MDA-MB-231 cells; type: cell-based, human; settings: 4 h, MDA-MB-231
Experimental: as §1, §2
The following antibodies were used in this study: ACTB (Merck; A5316), HIF1-α (Cell Signaling; 14179), HIF2/EPAS-1 (Santa Cruz Biotechnology sc-13596), HXKII (Santa Cruz Biotechnology sc-6521), CAIX (Novus Biotechnology NB100-417), SIRT3 (Cell Signaling; 2627S), MnSOD (Abcam ab13533), MnSOD K68 (Abcam ab137037), MnSOD K122 (Abcam ab214675), peroxidase-conjugated AffiniPure Goat Anti-Rabbit IgG (H + L) (Jackson ImmunoResearch; 111-035-003), and peroxidase-conjugated AffiniPure Goat Anti-Mouse IgG (H + L) (Jackson ImmunoResearch; 115-035-062).
as §3

[3] = tested on: CAL-62 cells; assay: Cell viability / cell death, trypan blue exclusion, CAL-62; type: cell-based; settings: for IC50: read-out: IC50 cell viability reduction
[4] = tested on: MDA-MB-231 cells; assay: Cell viability / cell death, trypan blue exclusion, MDA-MB-231; type: cell-based, human

Q: What does the source list for `CCOC(=O)C1=CN(C(=O)c2cc(OC)cc(OC)c2)C=C(C(=O)OCC)C1c1ccccc1` [Compound 3d, Diethyl 1-(3,5-dimethoxybenzoyl)-4-phenyl-1,4-dihydropyridine-3,5-dicarboxylate]?
A: ratio acK68- or acK122-MnSOD/MnSOD [1]: decrease; acK122-MnSOD deacetylation ([2]; 10 μM): significant acK122 deacetylation; ratio acK68- or acK122-MnSOD/MnSOD ([2]; 50 μM): decrease; Cell death (%) T24 ([3]; CAL-62, 5 μM, 24 h): 14,3%; Cell death (%) T48 ([3]; CAL-62, 5 μM, 48 h): 21,7%; Cell death (%) T24 ([3]; CAL-62, 10 μM, 24 h): 20,4%; Cell death (%) T24 ([3]; CAL-62, 25 μM, 24 h): 25,6%; Cell death (%) T48 ([3]; CAL-62, 25 μM, 48 h): 66,1%; higher efficacy in hypoxia than in normoxia (cell viability reduction and cell death induction) ([3]; CAL-62, 48 h): 4.8 fold; IC50 ([3]; Homo sapiens, CAL-62, 48 h, hypoxia): ~3.5 µM; IC50 ([3]; Homo sapiens, CAL-62, 48 h, normoxia): ~16.7 µM; viability at 5 µM ([3]; Homo sapiens, CAL-62, 5 μM, 24 h, read-out: Cell viability (%) T24): 85.7%; viability at 5 µM ([3]; Homo sapiens, CAL-62, 5 μM, 48 h, read-out: Cell viability (%) T48): 78.3%; viability at 10 µM ([3]; Homo sapiens, CAL-62, 10 μM, 48 h, read-out: Cell viability (%) T48): 63.5%; viability at 25 µM ([3]; Homo sapiens, CAL-62, 25 μM, 24 h, read-out: Cell viability (%) T24): 74.4%; viability at 25 µM ([3]; Homo sapiens, CAL-62, 25 μM, 48 h, read-out: Cell viability (%) T48): 33.8%; viability at 5 µM ([4]; Homo sapiens, MDA-MB-231, 5 μM, 24 h, read-out: Cell viability (%) T24): 74.1%; viability at 5 µM ([4]; Homo sapiens, MDA-MB-231, 5 μM, 48 h, read-out: Cell viability (%) T48): 51.7%; viability at 10 µM ([4]; Homo sapiens, MDA-MB-231, 10 μM, 24 h, read-out: Cell viability (%) T24): 56.2%; viability at 25 µM ([4]; Homo sapiens, MDA-MB-231, 25 μM, 24 h, read-out: Cell viability (%) T24): 42.8%; viability at 25 µM ([4]; Homo sapiens, MDA-MB-231, 25 μM, 48 h, read-out: Cell viability (%) T48): 21.1%; Cell death (%) T24 ([4]; MDA-MB-231, 5 μM, 24 h): 25,9%; Cell death (%) T48 ([4]; MDA-MB-231, 5 μM, 48 h): 48,3%; Cell death (%) T24 ([4]; MDA-MB-231, 10 μM, 24 h): 43,8%; Cell death (%) T24 ([4]; MDA-MB-231, 25 μM, 24 h): 57,2%; Cell death (%) T48 ([4]; MDA-MB-231, 25 μM, 48 h): 78,8%
